Source: ChEMBL document CHEMBL5550161, “Discovery of novel small molecules targeting the USP21/JAK2/STAT3 axis for the treatment of triple-negative breast cancer” (Eur J Med Chem, 2024)

Experiments:
[1] = system: Hs-578T; experiment: Anti-proliferative activity against human Hs-578T cells assessed as cell growth inhibition incubated for 72 hrs by MTT assay; assay type: functional, cell-based
[2] = system: HCC1806; experiment: Anti-proliferative activity against human HCC1806 cells assessed as cell growth inhibition incubated for 72 hrs by MTT assay; assay type: functional, cell-based; conditions: HCC1806, 72 h
[3] = system: MCF7; experiment: Anti-proliferative activity against human MCF7 cells assessed as cell growth inhibition incubated for 72 hrs by MTT assay; assay type: functional, cell-based; conditions: MCF7, 72 h
[4] = system: MDA-MB-231; experiment: Anti-proliferative activity against human MDA-MB-231 cells assessed as cell growth inhibition incubated for 72 hrs by MTT assay; assay type: functional, cell-based; conditions: MDA-MB-231, 72 h
[5] = biological target: Tyrosine-protein kinase JAK2 (Homo sapiens, UniProt O60674); experiment: Inhibition of JAK2 (unknown origin)
Tyrosine-protein kinase JAK2, sequence (O60674 whole entry): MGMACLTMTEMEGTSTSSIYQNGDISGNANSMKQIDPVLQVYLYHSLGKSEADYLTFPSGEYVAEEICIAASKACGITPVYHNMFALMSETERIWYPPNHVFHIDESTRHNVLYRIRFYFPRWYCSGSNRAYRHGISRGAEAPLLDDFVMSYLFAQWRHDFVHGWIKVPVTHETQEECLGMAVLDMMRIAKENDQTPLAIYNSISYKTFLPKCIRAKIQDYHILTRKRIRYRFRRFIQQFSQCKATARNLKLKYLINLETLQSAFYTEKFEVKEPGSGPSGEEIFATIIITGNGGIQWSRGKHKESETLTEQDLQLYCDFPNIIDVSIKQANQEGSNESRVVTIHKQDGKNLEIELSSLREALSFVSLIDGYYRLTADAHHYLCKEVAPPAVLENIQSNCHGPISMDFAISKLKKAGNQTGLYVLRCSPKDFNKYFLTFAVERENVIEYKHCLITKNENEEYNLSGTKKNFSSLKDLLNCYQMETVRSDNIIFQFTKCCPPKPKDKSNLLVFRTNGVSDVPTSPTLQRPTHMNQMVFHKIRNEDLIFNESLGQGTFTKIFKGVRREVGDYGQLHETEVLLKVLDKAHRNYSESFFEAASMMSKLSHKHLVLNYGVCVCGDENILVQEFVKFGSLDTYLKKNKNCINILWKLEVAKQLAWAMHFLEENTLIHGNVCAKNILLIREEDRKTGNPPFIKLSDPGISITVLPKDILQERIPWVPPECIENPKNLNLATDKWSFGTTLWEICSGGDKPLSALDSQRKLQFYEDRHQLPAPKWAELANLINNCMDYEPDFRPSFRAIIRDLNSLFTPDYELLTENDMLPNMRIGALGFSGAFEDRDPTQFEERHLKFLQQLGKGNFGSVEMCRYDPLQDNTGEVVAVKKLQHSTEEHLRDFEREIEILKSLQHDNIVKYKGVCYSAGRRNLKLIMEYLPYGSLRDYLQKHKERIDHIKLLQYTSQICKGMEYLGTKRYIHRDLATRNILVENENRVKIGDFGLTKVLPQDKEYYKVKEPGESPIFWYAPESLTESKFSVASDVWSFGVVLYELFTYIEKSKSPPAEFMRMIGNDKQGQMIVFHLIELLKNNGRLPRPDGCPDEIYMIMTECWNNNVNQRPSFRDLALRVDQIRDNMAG

| Structure (SMILES) | IC50 [1] | IC50 [2] | IC50 [3] | IC50 [4] | IC50 [5] |
| --- | --- | --- | --- | --- | --- |
| COc1cc(Nc2cc(F)cc(C)c2C(=O)NCCc2c[nH]c3ccccc23)cc(OC)c1OC | > 100 µM | 70.7 µM | 29.4 µM | 50.4 µM | – |
| COc1cc(Nc2cc(F)ccc2C(=O)NCCc2c[nH]c3cc(F)c(F)cc23)cc(OC)c1OC | 27.3 µM | 20.2 µM | 50.6 µM | 1.68 µM | – |
| COc1cc(Nc2ccc(F)cc2C(=O)NCCc2c[nH]c3ccccc23)cc(OC)c1OC | 55.8 µM | 12.5 µM | > 100 µM | > 100 µM | – |
| COc1cc(Nc2ccc(Cl)cc2C(=O)NCCc2c[nH]c3ccccc23)cc(OC)c1OC | > 100 µM | > 100 µM | > 100 µM | > 100 µM | – |
| COc1ccc2c(CCNC(=O)c3ccc(F)cc3Nc3cc(OC)c(OC)c(OC)c3)c[nH]c2c1 | > 100 µM | 1.75 µM | 40.4 µM | 46.7 µM | – |
| COc1cc(Nc2cccc(Cl)c2C(=O)NCCc2c[nH]c3ccccc23)cc(OC)c1OC | > 100 µM | > 100 µM | 41.5 µM | 95.1 µM | – |
| COc1cc(Nc2c(C(=O)NCCc3c[nH]c4ccccc34)ccc(F)c2F)cc(OC)c1OC | > 100 µM | 90 µM | 78 µM | 85.3 µM | – |
| COc1cc(Nc2cc(F)ccc2C(=O)NCCc2c[nH]c3ccc(F)cc23)cc(OC)c1OC | 1.37 µM | 2.4 µM | 1.38 µM | 0.83 µM | – |
| COc1cc2[nH]cc(CCNC(=O)c3ccc(F)cc3Nc3cc(OC)c(OC)c(OC)c3)c2cc1OC | > 100 µM | 91.5 µM | 65.8 µM | 94 µM | – |
| COc1cc(Nc2ccc(C(F)(F)F)cc2C(=O)NCCc2c[nH]c3ccccc23)cc(OC)c1OC | > 100 µM | > 100 µM | 43.3 µM | 82.7 µM | – |
| COc1cc(Nc2cccc(F)c2C(=O)NCCc2c[nH]c3ccccc23)cc(OC)c1OC | 24.5 µM | 3.25 µM | > 100 µM | 24.3 µM | – |
| COc1ccc(Nc2cc(OC)c(OC)c(OC)c2)c(C(=O)NCCc2c[nH]c3ccccc23)c1 | > 100 µM | 29.9 µM | > 100 µM | 82.1 µM | – |
| COc1cc(Nc2cc(F)cc(F)c2C(=O)NCCc2c[nH]c3ccccc23)cc(OC)c1OC | 1.03 µM | 3.14 µM | > 100 µM | 1.66 µM | – |
| COc1cc(Nc2c(F)cc(F)cc2C(=O)NCCc2c[nH]c3ccccc23)cc(OC)c1OC | > 100 µM | > 100 µM | > 100 µM | > 100 µM | – |
| COc1cc(C)c2[nH]cc(CCNC(=O)c3ccc(F)cc3Nc3cc(OC)c(OC)c(OC)c3)c2c1 | 19.8 µM | 15.1 µM | > 100 µM | 2.12 µM | – |
| COc1cc(Nc2cc(F)ccc2C(=O)NCCc2c[nH]c3ccc(Cl)cc23)cc(OC)c1OC | 41.3 µM | 11.3 µM | 8.75 µM | 2.2 µM | – |
| COc1cc(Nc2c(F)cccc2C(=O)NCCc2c[nH]c3ccccc23)cc(OC)c1OC | > 100 µM | > 100 µM | > 100 µM | > 100 µM | – |
| COc1cc(Nc2cc(F)ccc2C(=O)NCCc2c[nH]c3ccc(Br)cc23)cc(OC)c1OC | 51.5 µM | 3.46 µM | 8.65 µM | 2.94 µM | – |
| COc1cc(Nc2cc(F)ccc2C(=O)NCCc2c[nH]c3cccc(Br)c23)cc(OC)c1OC | 7.97 µM | 2.16 µM | 4.37 µM | 3.55 µM | – |
| COc1cc(Nc2cc(Br)ccc2C(=O)NCCc2c[nH]c3ccccc23)cc(OC)c1OC | > 100 µM | 4.33 µM | 3.28 µM | 3.75 µM | – |
| COc1cc(Nc2cc(F)ccc2C(=O)NCCc2c[nH]c3cccc(Cl)c23)cc(OC)c1OC | 3.02 µM | 1.82 µM | 3.26 µM | 1.99 µM | – |
| COc1cc(Nc2cc(F)c(F)cc2C(=O)NCCc2c[nH]c3ccccc23)cc(OC)c1OC | 4.38 µM | 8.3 µM | > 100 µM | 41.8 µM | – |
| COc1cc(Nc2cc(F)ccc2C(=O)NCCc2c[nH]c3cc(Cl)ccc23)cc(OC)c1OC | 57.7 µM | 8.46 µM | 12.2 µM | 3.08 µM | – |
| COc1cc(Br)c2c(CCNC(=O)c3ccc(F)cc3Nc3cc(OC)c(OC)c(OC)c3)c[nH]c2c1 | > 100 µM | > 100 µM | > 100 µM | 58.2 µM | – |
| COc1cc(Nc2cc(F)ccc2C(=O)NCCc2c[nH]c3c(C(F)(F)F)cccc23)cc(OC)c1OC | 19.4 µM | 10.5 µM | 8.98 µM | 4.03 µM | – |
| COc1cc(Nc2cc(F)ccc2C(=O)NCCc2c[nH]c3c(F)cccc23)cc(OC)c1OC | 0.76 µM | 0.4 µM | 0.53 µM | 0.37 µM | – |
| COc1cc(Nc2cc(F)ccc2C(=O)NCCc2c[nH]c3cccc(OC)c23)cc(OC)c1OC | 34.7 µM | 18.2 µM | 20.6 µM | 2.96 µM | – |

| Structure (SMILES) | IC50 [1] | IC50 [2] | IC50 [3] | IC50 [4] | IC50 [5] |
| --- | --- | --- | --- | --- | --- |
| COc1cc(Nc2cc(C)c(F)cc2C(=O)NCCc2c[nH]c3ccccc23)cc(OC)c1OC | 47.8 µM | 15 µM | > 100 µM | 93.7 µM | – |
| COc1cc(Nc2cc(F)ccc2C(=O)NCCc2c[nH]c3cc(Br)ccc23)cc(OC)c1OC | 22.1 µM | 1.84 µM | 3.1 µM | 2.14 µM | – |
| COc1cc(Nc2cccc(C)c2C(=O)NCCc2c[nH]c3ccccc23)cc(OC)c1OC | > 100 µM | > 100 µM | > 100 µM | > 100 µM | – |
| COc1cc(Nc2c(C(=O)NCCc3c[nH]c4ccccc34)cccc2[N+](=O)[O-])cc(OC)c1OC | > 100 µM | > 100 µM | > 100 µM | 31.3 µM | – |
| COc1ccc2[nH]cc(CCNC(=O)c3ccc(F)cc3Nc3cc(OC)c(OC)c(OC)c3)c2c1 | > 100 µM | 18 µM | 23.6 µM | 4.66 µM | – |
| COc1cc(Nc2cc(F)ccc2C(=O)NCCc2c[nH]c3c(Cl)cccc23)cc(OC)c1OC | 1.57 µM | 2.82 µM | 1.65 µM | 1.09 µM | – |
| COc1cc(Nc2cc(F)ccc2C(=O)NCCc2c[nH]c3cccc(F)c23)cc(OC)c1OC | 1.86 µM | 0.47 µM | 0.97 µM | 0.53 µM | – |
| COc1cc(Nc2cc(Cl)ccc2C(=O)NCCc2c[nH]c3ccccc23)cc(OC)c1OC | 13.1 µM | 1.88 µM | 2.69 µM | 2.6 µM | – |
| COc1cc(Nc2cc(C)ccc2C(=O)NCCc2c[nH]c3ccccc23)cc(OC)c1OC | > 100 µM | 26.5 µM | > 100 µM | > 100 µM | – |
| COc1cc(Nc2cc(F)c(C)cc2C(=O)NCCc2c[nH]c3ccccc23)cc(OC)c1OC | > 100 µM | 20.2 µM | 11 µM | 38.6 µM | – |
| COc1cc(Nc2cc(F)ccc2C(=O)NCCc2c[nH]c3c(Br)cccc23)cc(OC)c1OC | 13.1 µM | 1.94 µM | 3.56 µM | 2.44 µM | – |
| COc1cc(Nc2ccc(Br)cc2C(=O)NCCc2c[nH]c3ccccc23)cc(OC)c1OC | > 100 µM | > 100 µM | > 100 µM | > 100 µM | – |
| COc1cc(Nc2ccccc2C(=O)NCCc2c[nH]c3ccccc23)cc(OC)c1OC | 2.18 µM | 2.41 µM | > 100 µM | 99.7 µM | > 10 µM |
| COc1cc(Nc2cc(F)ccc2C(=O)NCCc2c[nH]c3cccc(C)c23)cc(OC)c1OC | 3.44 µM | 2.39 µM | 2.7 µM | 2.9 µM | – |
| COc1cc(Nc2c(C)cccc2C(=O)NCCc2c[nH]c3ccccc23)cc(OC)c1OC | > 100 µM | > 100 µM | > 100 µM | > 100 µM | – |
| COc1cc(Nc2cc(F)ccc2C(=O)NCCc2c[nH]c3ccc(F)c(F)c23)cc(OC)c1OC | 1.32 µM | 0.92 µM | 1.86 µM | 0.68 µM | – |
| COc1cc(Nc2cc(F)ccc2C(=O)NCCc2c[nH]c3ccc(C)cc23)cc(OC)c1OC | 55.5 µM | 7.81 µM | 8.77 µM | 2.79 µM | – |
| COc1cc(Nc2cc(F)ccc2C(=O)NCCc2c[nH]c3c(OC)cccc23)cc(OC)c1OC | 2.86 µM | 2.57 µM | > 100 µM | 20.9 µM | – |
| COc1cc(Nc2cccc(OC)c2C(=O)NCCc2c[nH]c3ccccc23)cc(OC)c1OC | > 100 µM | > 100 µM | > 100 µM | > 100 µM | – |
| COc1cc(Nc2cc(F)ccc2C(=O)NCCc2c[nH]c3cc(C)ccc23)cc(OC)c1OC | > 100 µM | 34.5 µM | 74 µM | 11.9 µM | – |
| COc1cc(Nc2cccc(C(F)(F)F)c2C(=O)NCCc2c[nH]c3ccccc23)cc(OC)c1OC | > 100 µM | > 100 µM | 67 µM | > 100 µM | – |
| COc1cc(Nc2cc(F)ccc2C(=O)NCCc2c[nH]c3c(C)cccc23)cc(OC)c1OC | 2.1 µM | 3.35 µM | 2.12 µM | 1.97 µM | – |
| COc1cc(Nc2cc(F)ccc2C(=O)NCCc2c[nH]c3ccccc23)cc(OC)c1OC | 1.46 µM | 2.4 µM | 1.44 µM | 1.03 µM | – |
| COc1cc(Nc2cc(F)ccc2C(=O)NCCc2c[nH]c3cc(F)cc(F)c23)cc(OC)c1OC | 26.4 µM | 14.2 µM | 23 µM | 1.47 µM | – |
| COc1cc(Nc2cc(C(F)(F)F)ccc2C(=O)NCCc2c[nH]c3ccccc23)cc(OC)c1OC | 84.3 µM | 52.2 µM | 58.6 µM | 22.4 µM | – |
| COc1cc(Nc2cc(F)ccc2C(=O)NCCc2c[nH]c3cc(F)ccc23)cc(OC)c1OC | 89.1 µM | 8.43 µM | 5.09 µM | 2.65 µM | – |
